Laboratory results as given in patent US20060135480A1, “Derivatives of succinic and glutaric acids and analogs thereof useful as inhibitors of phex” (Enobia Pharma, priority 2002, published 2006).

Target: T1, sPHEX (Homo sapiens, UniProt P78562)
T1 construct: The soluble form of the metallopeptidase PHEX (sPHEX) was purified to homogeneity; made in house
T1 sequence (P78562 53-749 limits assumed): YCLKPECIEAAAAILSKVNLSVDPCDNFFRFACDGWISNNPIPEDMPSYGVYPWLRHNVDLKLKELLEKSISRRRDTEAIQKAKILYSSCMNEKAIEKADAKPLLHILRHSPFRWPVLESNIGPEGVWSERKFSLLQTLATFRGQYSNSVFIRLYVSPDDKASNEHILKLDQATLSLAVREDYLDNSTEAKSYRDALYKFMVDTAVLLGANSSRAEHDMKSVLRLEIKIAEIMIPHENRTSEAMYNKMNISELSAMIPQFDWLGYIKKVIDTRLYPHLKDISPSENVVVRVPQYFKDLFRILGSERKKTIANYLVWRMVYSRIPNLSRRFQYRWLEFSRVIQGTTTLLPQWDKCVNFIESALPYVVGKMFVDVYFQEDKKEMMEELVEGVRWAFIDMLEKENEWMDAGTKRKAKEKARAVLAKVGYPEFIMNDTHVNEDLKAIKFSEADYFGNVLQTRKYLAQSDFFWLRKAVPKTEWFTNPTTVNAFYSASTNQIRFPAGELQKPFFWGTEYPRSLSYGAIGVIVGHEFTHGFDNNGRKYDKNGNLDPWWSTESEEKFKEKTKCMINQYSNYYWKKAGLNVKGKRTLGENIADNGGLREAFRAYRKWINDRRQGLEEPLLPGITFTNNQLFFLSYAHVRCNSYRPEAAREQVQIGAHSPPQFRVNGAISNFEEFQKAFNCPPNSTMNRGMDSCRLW
Experiment: sPHEX inhibitor IC50 determination using a fluorogenic substrate (Abz-GFSDYK-Dnp, S3)
Format: biochemical
Conditions: fluorogenic substrate 20 μM, 100 ng sPHEX, pH 6.5
Protocol: The soluble form of the metallopeptidase PHEX (sPHEX) was purified to homogeneity according to the methods of Boileau and Crine (WO 00/50580). sPHEX quantity was measured with the Bradford assay (BioRad) using BSA as a standard.
sPHEX activity was determined using a fluorogenic substrate in which an increase of fluorescence was proportional to substrate conversion to products.
S3 was synthesized at Dr. Gilles Lajoie's laboratories (University of Western Ontario, Canada) by standard solid phase peptide synthesis. The fluorescent reaction product was excited at 320 nm to fluoresce at 420 nm. Fluorescence was recorded at 420 nm every five minutes over a one-hour period on a fluorescence plate reader (Perkin-Elmer, HTS-7000) to calculate the initial rate of the reaction. Typically, the reaction was carried out in 200 μl of buffer M (50 mM Mes(NaOH) pH 6.5, 150 mM NaCl) containing 100 ng of purified sPHEX and 20 μM of fluorigenic substrate to initiate the reaction. Enzymatic activity was determined by subtracting either the initial rate of substrate in buffer (solvolysis), or the typical reaction rate in which 5 mM EDTA was added prior to initiating the reaction.
sPHEX inhibitor IC50 determinations were done using the tested inhibitor at various concentrations coming from a serial dilution (usually ranging from 10^−3 M to 10^−12 M) in the reaction described above. IC50 values were calculated using the iterative four parameters non-linear regression formula from the GraphPad™ software (Prism).

Row | IC50 | SMILES
1 | 860 nM | O=C(O)CC(CC(=O)NO)C(=O)NCCOc1ccccc1 (stereo not drawn) [Example 138, 4-Hydroxycarbamoyl-3-(2-phenoxy-ethylcarbamoyl)-butyric acid]
2 | 360 nM | O=C(O)CC(CC(=O)NO)C(=O)NCCc1ccc(-c2ccc(O)cc2)cc1 (stereo not drawn) [Example 140, 3-[2-(4′-Hydroxy-biphenyl-4-yl)-ethylcarbamoyl]4-hydroxycarbamoyl-butyric acid]
3 | 54 nM | O=C(O)CC(CC(=O)NO)C(=O)NCC(c1ccccc1)c1ccccc1 (stereo not drawn) [Example 142, 3-(2,2-Diphenyl-ethylcarbamoyl)-4-hydroxycarbamoyl-butyric acid]
4 | 1700 nM | O=C(O)CC(CC(=O)NO)C(=O)NCCCCCO (stereo not drawn) [Example 148, 4-Hydroxycarbamoyl-3-(5-hydroxy-pentylcarbamoyl)-butyric acid]
5 | 270 nM | O=C(O)CC(CC(=O)NO)C(=O)NCc1ccc(-c2ccccc2)cc1 (stereo not drawn) [Example 150, 3-[(Biphenyl-4-ylmethyl)-carbamoyl]-4-hydroxycarbamoyl-butyric acid]
6 | 1300 nM | O=C(O)CC(CCC(=O)NO)C(=O)NCCc1ccc(-c2ccccc2)cc1 (stereo not drawn) [Example 152, 3-(2-Biphenyl-4-yl-ethylcarbamoyl)-5-hydroxycarbamoyl-pentanoic acid]
7 | 9700 nM | O=C(O)C[C@H](NC(CCc1ccccc1)P(=O)(O)O)C(=O)N[C@@H](Cc1c[nH]c2ccccc12)C(=O)O (stereo partly drawn) [Example 162, N-[1-carboxy-2-(1H-indol-3-yl)-ethyl]-3-(3-phenyl-1-phosphono-propylamino)-succinic acid]
8 | 19000 nM | O=C(O)CC(CC(=O)O)C(=O)NCCc1ccc2ccccc2c1 [Example 169, 3-(2-Naphthalen-2-yl-ethylcarbamoyl)-pentanedioic acid]

More lines, now with the values behind:

Row | SMILES | IC50
9 | CNC(=O)[C@H](Cc1c[nH]c2ccccc12)NC(=O)[C@H](CC(=O)O)NC(=O)CS [Example 115, N-[2-(1H-indol-3-yl)-methylcarbamoyl-ethyl]-3-(2-mercapto-acetylamino)-succinamic acid] | 1300 nM
10 | O=C(O)C[C@H](NC(=O)[C@@H](S)Cc1ccccc1)C(=O)N[C@@H](Cc1c[nH]c2ccccc12)C(=O)N[C@@H](CO)C(=O)O [Example 116, N-[1-(1-Carboxy-2-hydroxy-ethylcarbamoyl)-2-(1H-indol-3-yl)-ethyl]-3-(2-mercapto-3-phenyl-propionylamino)-succinamic acid] | 4 nM
11 | COC(=O)[C@H](Cc1c[nH]c2ccccc12)NC(=O)[C@H](CC(=O)O)NC(=O)CS [Example 117, N-[2-(1H-indol-3-yl)-methoxycarbonyl-etjyl]-3-(2-mercapto-acetylamino)-succinamic acid] | 2600 nM
12 | O=C(O)C[C@H](NC(=O)[C@@H](S)Cc1ccccc1)C(=O)NCCc1c[nH]c2ccccc12 [Example 118, N-[2-(1H-indol-3-yl)l-ethyl]-3-(2-mercapto-3-phenyl-propionylamino)-succinamic acid] | 140 nM
13 | N#Cc1ccc(-c2ccc(CCNC(=O)C(CC(=O)O)CC(=O)NO)cc2)cc1 (stereo not drawn) [Example 130, 3-[2-(4′-Cyano-biphenyl-4-yl)-ethylcarbamoyl]-4-hydroxycarbamoyl-butyric acid] | 190 nM
14 | O=C(O)CC(CC(=O)NO)C(=O)NCCc1ccc(-c2ccccn2)cc1 (stereo not drawn) [Example 132, 4-Hydroxycarbamoyl-3-[2-(4-pyridin-2-yl-phenyl)-ethylcarbamoyl]-butyric acid] | 240 nM
15 | O=C(O)CC(CC(=O)NO)C(=O)NCCCCc1ccccc1 (stereo not drawn) [Example 134, 4-Hydroxycarbamoyl-3-(4-phenyl-butylcarbamoyl)-butyric acid] | 560 nM
